Experimental data from BigSolDB 2.1.

CC(C)(C)C(O)(CCc1ccc(Cl)cc1)Cn1cncn1 (stereo not given)
solubility (mole fraction)
Details	in 2-butanone	in acetone	in acetonitrile	in ethanol	in ethyl acetate	in isopropanol	in methanol	in n-propanol	in toluene
278.15 K	0.0404	0.0304	0.00516	0.0103	0.0244	0.00877	0.0154	0.00704	0.0217
280.65 K	0.0439	0.0336	0.00585	0.0118	0.027	0.0103	0.0174	0.00825	0.0244
283.15 K	0.0476	0.038	0.00662	0.0136	0.03	0.012	0.0196	0.00953	0.0276
285.65 K	0.0524	0.0416	0.00746	0.0157	0.0336	0.0138	0.0225	0.0112	0.0311
288.15 K	0.0569	0.0461	0.00838	0.0179	0.0377	0.0159	0.0253	0.0133	0.0354
290.65 K	0.0612	0.0507	0.00942	0.0203	0.0421	0.018	0.0284	0.0153	0.0404
293.15 K	0.0659	0.0562	0.0107	0.0234	0.0466	0.0204	0.032	0.0175	0.0453
295.65 K	0.0709	0.0613	0.012	0.0264	0.0512	0.023	0.0359	0.0201	0.0512
298.15 K	0.076	0.0668	0.0134	0.0299	0.0564	0.026	0.04	0.0227	0.0578
300.65 K	0.0815	0.0723	0.0149	0.0333	0.0612	0.0293	0.0444	0.0258	0.0644
303.15 K	0.0869	0.0789	0.0165	0.037	0.0668	0.0328	0.0497	0.0296	0.0712
305.65 K	0.0928	0.0851	0.0186	0.0411	0.0734	0.0367	0.0551	0.0338	0.079
308.15 K	0.0987	0.0925	0.0208	0.0463	0.0797	0.0416	0.06	0.0388	0.0873
310.65 K	0.106	0.101	0.0233	0.0515	0.0867	0.0462	0.0659	0.0444	0.0964
313.15 K	0.113	0.11	0.0261	0.0572	0.0945	0.0519	0.0724	0.0498	0.105
